{"source": "ChEMBL document CHEMBL5724696", "about": "“Autophagy assay results for EUbOPEN Chemogenomics Library” (2024)", "format_in_all_cases": "functional, Homo sapiens", "key": {"U2OS [1]": {"tested_on": "U2OS", "test": "(§1) Here: values are normalized to the negative (DMSO; defined as 0% autophagy induction) and positive (250nM Torin1; mTOR inhibitor; defined as maximal inducer of autophagy = 100%) control compounds and represented as % of autophagy induction. […] The impact of autophagy induction on cells is complex and depends on the affected target. As such, the magnitude of a phenotype may not be equally mirrored in the %-value of autophagy induction and vice versa. The dynamics of the induction may indicate the mode of activation: e.g. activation via phosphorylation or a signaling cascade may occur fast, while activation via transcription factors may take considerably longer. […] Of note, treatment concentrations may be sub-optimal for specific compounds, leading to false negative annotations.", "details": "Culturing Media DMEM, 1 % Penicillin/Streptomycin, 10% Fetal bovin serum Add-On: No, Screening Media Control DMEM, Screening Media Samples DMEM"}, "U2OS [2]": {"tested_on": "U2OS", "test": "as §1", "details": "Culturing Media DMEM, 1 % Penicillin/Streptomycin, 10% Fetal bovin serum Add-On: No, Screening Media Control DMEM, Screening Media Samples DMEM", "remark": "listed apart in the source"}, "TERT-RPE1": {"tested_on": "TERT-RPE1", "test": "as §1", "details": "Culturing Media DMEM/F12 (1:1), 1 % Penicillin/Streptomycin, 10% Fetal bovin serum Add-On: No, Screening Media Control DMEM/F12 (1:1), Screening Media Samples DMEM/F12 (1:1)"}, "[3]": {"details": "Compound Concentration 0.5 uM, Timepoint 12 hours"}, "[4]": {"details": "Compound Concentration 0.5 uM, Timepoint 24 hours"}, "[5]": {"details": "Compound Concentration 0.5 uM, Timepoint 36 hours"}, "[6]": {"details": "Compound Concentration 0.5 uM, Timepoint 60 hours"}, "[7]": {"details": "Compound Concentration 2 uM, Timepoint 12 hours"}, "[8]": {"details": "Compound Concentration 2 uM, Timepoint 24 hours"}, "[9]": {"details": "Compound Concentration 2 uM, Timepoint 36 hours"}, "[10]": {"details": "Compound Concentration 2 uM, Timepoint 60 hours"}, "[11]": {"details": "Compound Concentration 10 uM, Timepoint 12 hours"}, "[12]": {"details": "Compound Concentration 10 uM, Timepoint 24 hours"}, "[13]": {"details": "Compound Concentration 10 uM, Timepoint 36 hours"}, "[14]": {"details": "Compound Concentration 10 uM, Timepoint 60 hours"}}}
{"smiles": "O=C1N/C(=N/c2ccccc2F)S/C1=C\\c1ccc(C(=O)O)cc1", "values": [{"measurement": "autophagy induction", "setting": "U2OS [1]; [3]", "value": -6.588, "unit": "%"}, {"measurement": "autophagy induction", "setting": "U2OS [1]; [4]", "value": -6.026, "unit": "%"}, {"measurement": "autophagy induction", "setting": "U2OS [1]; [5]", "value": -1.651, "unit": "%"}, {"measurement": "autophagy induction", "setting": "U2OS [1]; [6]", "value": -8.214, "unit": "%"}, {"measurement": "autophagy induction", "setting": "U2OS [1]; [7]", "value": 1.845, "unit": "%"}, {"measurement": "autophagy induction", "setting": "U2OS [1]; [8]", "value": 3.048, "unit": "%"}, {"measurement": "autophagy induction", "setting": "U2OS [1]; [9]", "value": 0.4254, "unit": "%"}, {"measurement": "autophagy induction", "setting": "U2OS [1]; [10]", "value": -3.587, "unit": "%"}, {"measurement": "autophagy induction", "setting": "U2OS [1]; [11]", "value": 7.038, "unit": "%"}, {"measurement": "autophagy induction", "setting": "U2OS [1]; [12]", "value": 3.001, "unit": "%"}, {"measurement": "autophagy induction", "setting": "U2OS [1]; [13]", "value": 3.146, "unit": "%"}, {"measurement": "autophagy induction", "setting": "U2OS [1]; [14]", "value": -8.731, "unit": "%"}, {"measurement": "autophagy induction", "setting": "U2OS [2]; [3]", "value": 1.731, "unit": "%"}, {"measurement": "autophagy induction", "setting": "U2OS [2]; [4]", "value": 0.03156, "unit": "%"}, {"measurement": "autophagy induction", "setting": "U2OS [2]; [5]", "value": -1.478, "unit": "%"}, {"measurement": "autophagy induction", "setting": "U2OS [2]; [6]", "value": 0.04429, "unit": "%"}, {"measurement": "autophagy induction", "setting": "U2OS [2]; [7]", "value": 4.489, "unit": "%"}, {"measurement": "autophagy induction", "setting": "U2OS [2]; [8]", "value": 0.7124, "unit": "%"}, {"measurement": "autophagy induction", "setting": "U2OS [2]; [9]", "value": -0.5769, "unit": "%"}, {"measurement": "autophagy induction", "setting": "U2OS [2]; [10]", "value": 0.3402, "unit": "%"}, {"measurement": "autophagy induction", "setting": "U2OS [2]; [11]", "value": -30.0859, "unit": "%"}, {"measurement": "autophagy induction", "setting": "U2OS [2]; [12]", "value": -13.2121, "unit": "%"}, {"measurement": "autophagy induction", "setting": "U2OS [2]; [13]", "value": -8.741, "unit": "%"}, {"measurement": "autophagy induction", "setting": "U2OS [2]; [14]", "value": -4.602, "unit": "%"}, {"measurement": "autophagy induction", "setting": "TERT-RPE1; [3]", "value": -10.0262, "unit": "%"}, {"measurement": "autophagy induction", "setting": "TERT-RPE1; [4]", "value": -9.4115, "unit": "%"}, {"measurement": "autophagy induction", "setting": "TERT-RPE1; [5]", "value": -12.0012, "unit": "%"}, {"measurement": "autophagy induction", "setting": "TERT-RPE1; [6]", "value": -17.4269, "unit": "%"}, {"measurement": "autophagy induction", "setting": "TERT-RPE1; [7]", "value": -2.621, "unit": "%"}, {"measurement": "autophagy induction", "setting": "TERT-RPE1; [8]", "value": -7.325, "unit": "%"}, {"measurement": "autophagy induction", "setting": "TERT-RPE1; [9]", "value": -9.455, "unit": "%"}, {"measurement": "autophagy induction", "setting": "TERT-RPE1; [10]", "value": -13.9846, "unit": "%"}, {"measurement": "autophagy induction", "setting": "TERT-RPE1; [11]", "value": -9.926, "unit": "%"}, {"measurement": "autophagy induction", "setting": "TERT-RPE1; [12]", "value": -10.0998, "unit": "%"}, {"measurement": "autophagy induction", "setting": "TERT-RPE1; [13]", "value": -12.1834, "unit": "%"}, {"measurement": "autophagy induction", "setting": "TERT-RPE1; [14]", "value": -11.0664, "unit": "%"}]}
{"smiles": "O=C(O)C1CN(Cc2ccc(OCc3ccc(Cl)c(Cl)c3)cc2)C1", "values": [{"measurement": "autophagy induction", "setting": "U2OS [1]; [3]", "value": -6.393, "unit": "%"}, {"measurement": "autophagy induction", "setting": "U2OS [1]; [4]", "value": -7.561, "unit": "%"}, {"measurement": "autophagy induction", "setting": "U2OS [1]; [5]", "value": -8.567, "unit": "%"}, {"measurement": "autophagy induction", "setting": "U2OS [1]; [6]", "value": -6.096, "unit": "%"}, {"measurement": "autophagy induction", "setting": "U2OS [1]; [7]", "value": 2.736, "unit": "%"}, {"measurement": "autophagy induction", "setting": "U2OS [1]; [8]", "value": -0.6379, "unit": "%"}, {"measurement": "autophagy induction", "setting": "U2OS [1]; [9]", "value": 3.003, "unit": "%"}, {"measurement": "autophagy induction", "setting": "U2OS [1]; [10]", "value": 6.192, "unit": "%"}, {"measurement": "autophagy induction", "setting": "U2OS [1]; [11]", "value": 4.494, "unit": "%"}, {"measurement": "autophagy induction", "setting": "U2OS [1]; [12]", "value": -1.815, "unit": "%"}, {"measurement": "autophagy induction", "setting": "U2OS [1]; [13]", "value": -1.999, "unit": "%"}, {"measurement": "autophagy induction", "setting": "U2OS [1]; [14]", "value": -2.676, "unit": "%"}, {"measurement": "autophagy induction", "setting": "U2OS [2]; [3]", "value": -1.025, "unit": "%"}, {"measurement": "autophagy induction", "setting": "U2OS [2]; [4]", "value": -0.5625, "unit": "%"}, {"measurement": "autophagy induction", "setting": "U2OS [2]; [5]", "value": -1.224, "unit": "%"}, {"measurement": "autophagy induction", "setting": "U2OS [2]; [6]", "value": -0.01663, "unit": "%"}, {"measurement": "autophagy induction", "setting": "U2OS [2]; [7]", "value": 2.871, "unit": "%"}, {"measurement": "autophagy induction", "setting": "U2OS [2]; [8]", "value": 0.8864, "unit": "%"}, {"measurement": "autophagy induction", "setting": "U2OS [2]; [9]", "value": 0.6277, "unit": "%"}, {"measurement": "autophagy induction", "setting": "U2OS [2]; [10]", "value": 0.8248, "unit": "%"}, {"measurement": "autophagy induction", "setting": "U2OS [2]; [11]", "value": 1.474, "unit": "%"}, {"measurement": "autophagy induction", "setting": "U2OS [2]; [12]", "value": 3.015, "unit": "%"}, {"measurement": "autophagy induction", "setting": "U2OS [2]; [13]", "value": 1.861, "unit": "%"}, {"measurement": "autophagy induction", "setting": "U2OS [2]; [14]", "value": 1.49, "unit": "%"}, {"measurement": "autophagy induction", "setting": "TERT-RPE1; [3]", "value": -8.997, "unit": "%"}, {"measurement": "autophagy induction", "setting": "TERT-RPE1; [4]", "value": -11.1742, "unit": "%"}, {"measurement": "autophagy induction", "setting": "TERT-RPE1; [5]", "value": -13.4476, "unit": "%"}, {"measurement": "autophagy induction", "setting": "TERT-RPE1; [6]", "value": -16.3767, "unit": "%"}, {"measurement": "autophagy induction", "setting": "TERT-RPE1; [7]", "value": -4.026, "unit": "%"}, {"measurement": "autophagy induction", "setting": "TERT-RPE1; [8]", "value": -8.149, "unit": "%"}, {"measurement": "autophagy induction", "setting": "TERT-RPE1; [9]", "value": -12.0341, "unit": "%"}, {"measurement": "autophagy induction", "setting": "TERT-RPE1; [10]", "value": -15.552, "unit": "%"}, {"measurement": "autophagy induction", "setting": "TERT-RPE1; [11]", "value": -3.6803, "unit": "%"}, {"measurement": "autophagy induction", "setting": "TERT-RPE1; [12]", "value": -2.7744, "unit": "%"}, {"measurement": "autophagy induction", "setting": "TERT-RPE1; [13]", "value": -2.708, "unit": "%"}, {"measurement": "autophagy induction", "setting": "TERT-RPE1; [14]", "value": -2.7926, "unit": "%"}]}
